{
  "source": "patent US4927835A",
  "about": "“Acylphenol derivatives, useful as anti-inflammatory agents and pain suppressants” (priority 1988, dated 1990)",
  "key": {"[1]": {"test": "Inhibitory action to carrageenin edema (right hind paw)", "format": "in vivo, male rats (SD strain)", "details": "for ED30: read-out: (1) ED30, carrageenin edema", "procedure": "Seven male rats (SD strain; 6 weeks of age) were used in a group. The test compound was administered per os and, after one hour, 0.1 ml of 0.5% λ-carrageenin solution was injected subcutaneously into the right hind paw. After three hours, the volume of the right hind paw was measured with a plethysmometer (UGO-BASILE). The degree of swelling was calculated by subtracting the volume before the carrageenin from the post injection volume."}, "[2]": {"test": "Inhibitory action to acetic acid writhing", "format": "in vivo, male mice (ddY strain)", "details": "for ED50: po, read-out: (2) ED50, acetic acid writhing", "procedure": "Six male mice (ddY strain; five weeks of age) were used in a group. The test compound was administered per os and, after one hour, 0.6% acetic acid was intraperitoneally injected at the dose of 0.1 ml/10 g and the total writhings within 20 minutes thereafter were counted. By comparing the number of writhings of the drug-treated group to that of the control group, the inhibitory rate was obtained and an ED50 value was calculated."}, "[3]": {"test": "Inhibitory action to pain by heat stimulation (tail flick)", "format": "in vivo, male mice (ddY strain)", "details": "mouse, per os; for ED50: po, tail flick at 5, 15, 30, 45 and 60 minutes, read-out: (3) ED50, pain by heat stimulation", "procedure": "Ten male mice (ddY strain; five weeks of age) were used in a group. Radiated heat (250 watts; 4 cm distance from the heat source) was applied to the end of the tail of the mice. […] The test compound was administered per os and the time of appearance of the tail flick after 5, 15, 30, 45 and 60 minutes was measured. […] The maximum positive rate among the analgesically positive rates in each measuring time was defined as the analgesically positive rate at that dose and an ED50 value was calculated therefrom."}, "[4]": {"test": "Stomach disorder (ulcer generation)", "parameters": "species or system male rats (SD strain)", "details": "rat, in vivo, po; for selectivity ratio: ratio UD50/ED50, read-out: Safety Region (UD50 /ED50)", "procedure": "Ten male rats (SD strain; five weeks of age) were used in a group. The test compound dissolved or suspended in physiological saline solution was administered to them per os. The animals were than fasted for 17 hours, and 0.5 ml of 5% pontamine sky blue solution was injected intravenously and, after 10 minutes, they were sacrificed with ether. The stomach was removed from the animals, and about 8 ml of 5% formaline solution was injected into the stomach to provide a semifixing. The presence of the […] was checked using a stereoscopic microscope. Rats in which even one ulcer was observed was judged to be positive in ulcer generation and a UD50 value was calculated by a provit method."}, "[5]": {"test": "Acute toxicity", "parameters": "species or system male rats (SD strain)", "details": "in vivo, po; rat, per os; 7 days; provit method; read-out: (5) LD50, acute toxicity", "procedure": "Test data showing the activity and superiority for compounds representative of those of the present invention is set forth below. In the tests, a representative compound of the present invention, namely 3-(1,1-Dimethylethyl)-4-hydroxy-5-[N-(2-hydroxyethyl)-N-methylaminomethyl]phenyl-2-thienyl ketone, the compound described in Example 4 (the \"test compound\"), was dissolved or suspended in 0.5% methylcellulose (MC) and administered as described.\nFour male rats (SD strain; six weeks of age) were used in a group. The test compound was given per os and, after 7 days, the […] were monitored for life and an LD50 value was calculated by a provit method."}, "[6]": {"test": "Analgesic, anti-inflammatory and anti-pyretic activity, summary statement", "format": "in vivo", "details": "from the data in Table 1"}, "[7]": {"details": "values given in literature; cited from earlier work"}, "[8]": {"details": "Agents and Actions, vol. 12, page 5, 1982; cited from earlier work"}, "[9]": {"details": "rat, per os, carrageenin 1 hour after compound, paw volume after three hours"}, "[10]": {"details": "mouse, per os, 0.6% acetic acid i.p. after one hour, writhings within 20 minutes"}},
  "note": "Where two headings read alike, the source gives them in different places.",
  "data": [
    {"smiles": "CN(CCO)Cc1cc(C(=O)c2cccs2)cc(C(C)(C)C)c1O", "note": "[Example 4, 3-(1,1-Dimethylethyl)-4-hydroxy-5-[N-(2-hydroxyethyl)-N-methylaminomethyl]phenyl 2-thienyl ketone]", "values": [
      {"measurement": "inhibitory action to carrageenin edema, in words", "setting": "[1]; rat, per os", "result": "inhibitory action to carrageenin edema"},
      {"measurement": "ED30", "setting": "[1]; [9]", "result": 9.8, "unit": "mg/kg"},
      {"measurement": "analgesic activity, inflammatory pain (acetic acid writhing), compared with codeine", "setting": "[2]; mouse, per os", "result": "analgesic activity as strong as codeine"},
      {"measurement": "ED50", "setting": "[2]; [10]", "result": 16.4, "unit": "mg/kg"},
      {"measurement": "analgesic activity, non-inflammatory pain (heat stimulation), compared with codeine", "setting": "[3]", "result": "analgesic activity as strong as codeine"},
      {"measurement": "ED50", "setting": "[3]", "result": 47, "unit": "mg/kg"},
      {"measurement": "TD50", "setting": "[4]", "result": 146, "unit": "mg/kg"},
      {"measurement": "selectivity ratio", "setting": "[4]", "result": 14.9},
      {"measurement": "LD50 at 168 h", "setting": "[5]", "result": 1000, "unit": "mg/kg"},
      {"measurement": "analgesic and anti-inflammatory activity, in words", "setting": "[6]", "result": "strong analgesic and anti-inflammatory activity"}
    ]},
    {"smiles": "CC(C)(C)c1cc(C(=O)c2cccs2)cc(C(C)(C)C)c1O", "note": "[Example R-830, 3,5-di-tert-butyl-4-hydroxy-phenyl 2-thienyl ketone]", "values": [
      {"measurement": "ED30", "setting": "[1]; [9]", "result": 5.6, "unit": "mg/kg"},
      {"measurement": "ED50", "setting": "[2]; [10]", "result": 22.4, "unit": "mg/kg"},
      {"measurement": "(3) action on pain by heat stimulation (no ED50)", "setting": "[3]; at 500 mg/kg", "result": "no action at 500 mg/kg"},
      {"measurement": "TD50", "setting": "[4]", "result": 11.8, "unit": "mg/kg"},
      {"measurement": "selectivity ratio", "setting": "[4]", "result": 2.1},
      {"measurement": "(5) LD50, acute toxicity", "setting": "[7]", "result": 1625, "unit": "mg/kg"},
      {"measurement": "inhibitory action against carrageenin-induced edema, in words", "setting": "[8]", "result": "inhibitory action against carrageenin-induced edema"}
    ]},
    {"smiles": "COc1ccc2c(c1)c(CC(=O)O)c(C)n2C(=O)c1ccc(Cl)cc1", "note": "[Indomethacin]", "values": [
      {"measurement": "ED30", "setting": "[1]; Rattus norvegicus", "result": 0.8, "unit": "mg/kg"},
      {"measurement": "ED50", "setting": "[2]; Mus musculus", "result": 2.1, "unit": "mg/kg"},
      {"measurement": "(3) action on pain by heat stimulation (no ED50)", "setting": "[3]; at 20 mg/kg", "result": "no action at 20 mg/kg"},
      {"measurement": "TD50", "setting": "[4]; per os, fasted 17 hours, provit method, read-out: (4) UD50, stomach ulcer generation", "result": 2.4, "unit": "mg/kg"},
      {"measurement": "selectivity ratio", "setting": "[4]", "result": 3}
    ]},
    {"smiles": "O=C(Cn1c(=O)sc2ccc(Cl)cc21)N1CCN(CCO)CC1", "note": "[Thiaramide]", "values": [
      {"measurement": "ED30", "setting": "[1]; [9]", "result": 112, "unit": "mg/kg"},
      {"measurement": "ED50", "setting": "[2]; [10]", "result": 27.3, "unit": "mg/kg"},
      {"measurement": "ED50", "setting": "[3]", "result": 108, "unit": "mg/kg"},
      {"measurement": "TD50", "setting": "[4]", "result": 278, "unit": "mg/kg"},
      {"measurement": "selectivity ratio", "setting": "[4]", "result": 2.5},
      {"measurement": "(5) LD50, acute toxicity", "setting": "[7]", "result": 4700, "unit": "mg/kg"}
    ]}
  ]
}
